Assay results: PMC10454726 (International Journal of Molecular Sciences, 2023)

Key:
[1] = Cytotoxic effect on Human Foreskin fibroblasts (SRB); type: cell-based; conditions: HFF-1 human foreskin fibroblasts, HFF-1 cells
Protocol: However, at high concentrations, they can be harmful to cells. For humans, doses less than 100 mg/day are considered safe. […] Therefore, we conducted cytotoxicity assays on Human Foreskin fibroblasts (HFF-1) and an AOT on female Wistar rats to assess their safety.
In a 96-well plate, 7000 cells per well of Human Foreskin fibroblasts (HFF-1) were cultured. […] Untreated cells were also included as a negative control. At the end of the incubation period, the cell contents were precipitated with 50 µL of a 50% aqueous solution of trichloroacetic acid (TCA) at 4 °C for 1 h. The supernatant was discarded and washed 5 times with distilled water. Afterward, the plates were allowed to dry at room temperature. The cell contents were incubated with 100 µL of a 0.04% sulforhodamine B (SRB) solution for 1 h at room temperature. The excess SRB was removed by washing with a 1% aqueous acetic acid solution. […] With the data obtained, the viability of treated cells was calculated by comparing the control without treatment. CC50 value was determined by employing BioStat Pro 5.9.8 software (AnalystSoft Inc., Brandon, FL, USA).

[2] = cited from earlier work
[3] = tested on: streptozotocin-induced diabetic rats; conditions: cited from earlier work
[4] = tested on: humans; conditions: cited from earlier work
[5] = tested on: streptozotocin-induced diabetic rats; assay: Oral glucose tolerance test in streptozotocin-induced diabetic rats; type: in vivo, Wistar rat; set-up: AUC of the OGTT: unit not given here; conditions: for glucose blood levels in OGTT compared to untreated animals: after 14 days of administration, ANOVA/Bonferroni
Protocol: (§1) After a week of acclimation, 35 male Wistar rats were given a single intraperitoneal dose of STZ (Sigma Chemical Co. Toluca, Estado de México, Mexico) at a dosage of 45 mg/kg of body weight, after fasting for 12 h overnight with free access to water. To prevent initial drug-induced hypoglycemia mortality, these animals were given a 10% sucrose solution 24 h after administration. STZ was dissolved in 0.1 M of sodium citrate buffer (pH 4.5) and administered in a final volume of 5 mL/kg. A week after STZ injection, diabetes in streptozotocin rats was confirmed by measuring fasting blood glucose (by glucose oxidase method). Animals with a blood glucose (tail vein) above 126 mg/dL were considered diabetic and used for the experiment to create groups 2, 3, 4, 5, 6, and 7 [1, 13]. Blood glucose levels were measured using a glucometer (Accu-Chek Active, Roche, Mannheim, Germany) and reactive strips (Accu-Chek Active Glucose test strips, Roche). The presence of hyperglycemia and insulin level confirmed a model very similar to T2D in humans. For the pharmacological study, the final number of animals was 35 male rats, with 3 rats being sacrificed during the treatment stage. One was administered with FC-114 and two with acarbose. The first rat was damaged during oral glucose administration in the OGTT at week 5, and the other rats had gastrointestinal complications in week 7.
(§2) The diabetic animals in group 2 (untreated) were given 4% v/v aqueous EtOH solution (vehicle of treatments) in a volume of 6.5 mL/kg body weight. The other groups (3–7) received different treatments for 14 days (weeks 5 to 7). […] All of the treatments were at equimolar doses of PIO and adjusted to the weekly weight of each rat. […] The commercial PIO tablet (30 mg) was crushed in 7.5 mL of vehicle and given to each animal in 4.0 mg/mL of suspension. The FC-114 and FC-122 suspensions were created at 6.2 and 6.0 mg/mL, respectively. The commercial acarbose tablet (50 mg) was crushed in 7.5 mL of the vehicle and given to each animal in a suspension of 6.6 mg/mL. Each suspension was used within 2 days of its preparation, and the administration volume was near to 2.5 mL for each rat.
The OGTT was carried out in weeks 3, 4, 5, 6, and 7. Prior to the OGTT, all animal groups fasted overnight for eight hours with free access to water. Each rat was weighed and then received a 2 g/kg glucose overload orally and blood samples were taken from the tail vein [13, 97]. Glucose levels were measured using a glucometer (Accu-Chek Active, Roche, Mannheim, Germany) at 0, 30, 60, 90, 120, and 180 min after glucose administration. The AUC of the OGTT was calculated using the blood glucose concentration over time and the GraphPad Prism 8.0.1 software package (GraphPad Software; Science Inc., San Diego, CA, USA) was used to compare the effectiveness of the treatments.

[6] = tested on: streptozotocin-induced diabetic rats; assay: Animal weight, food and water consumption in streptozotocin-induced diabetic rats; type: in vivo, Wistar rat; conditions: 14 days of treatment, weeks 5 to 7
Protocol: Six female (three for each compound: FC-114 and FC-122) (220 ± 10 g, for the acute toxicity assay) and forty male (215 ± 20 g, for the pharmacologic study) albino Wistar rats were acquired from the Isolation and Animal Facility Unit, Facultad de Estudios Superiores Cuautitlán (FESC), Universidad Nacional Autónoma de México (UNAM). They were kept in standard polypropylene boxes under controlled temperature (24 ± 4 °C) on a 12 h light/dark cycle and provided conventional food (formula 5001, Rat Chow) and purified water ad libitum. […] At the end of the experiment, the animals were taken to the humanitarian endpoint by the intraperitoneal (ip) administration of 75 mg/kg of sodium pentobarbital to perform a necropsy in the bioterium of FESC, UNAM. During the necropsy, blood serum was extracted to quantify glucose, triacylglycerides, cholesterol, and insulin. The study was conducted based on the guidelines of the Declaration of Helsinki and approved by the Institutional Review Board: Internal Committee for the Care and Use of Experimentation Animals (CICUAE, according to the initials in Spanish, C23_02 on March 2023) of the FESC UNAM (Mexico). It complies with the Mexican norm for this matter (NOM-062-ZOO-1999, Technical Specifications for the Production, Care, and Use of Laboratory Animals, SAGARPA), as well as the Guide for the Care and Use of Laboratory Animals of the National Research Council and National Institutes of Health (NIH Publications No. 8023, revised 1978).
as §1, §2

[7] = cited from earlier work; remark: listed apart in the source
[8] = biological target: α-glucosidase from Rominococcus obeum (Blautia obeum, UniProt A5ZY13); assay: Enzymatic kinetics of α-glucosidase inhibition (pNPG substrate); type: biochemical
α-glucosidase from Rominococcus obeum, sequence (A5ZY13 entry or part of it): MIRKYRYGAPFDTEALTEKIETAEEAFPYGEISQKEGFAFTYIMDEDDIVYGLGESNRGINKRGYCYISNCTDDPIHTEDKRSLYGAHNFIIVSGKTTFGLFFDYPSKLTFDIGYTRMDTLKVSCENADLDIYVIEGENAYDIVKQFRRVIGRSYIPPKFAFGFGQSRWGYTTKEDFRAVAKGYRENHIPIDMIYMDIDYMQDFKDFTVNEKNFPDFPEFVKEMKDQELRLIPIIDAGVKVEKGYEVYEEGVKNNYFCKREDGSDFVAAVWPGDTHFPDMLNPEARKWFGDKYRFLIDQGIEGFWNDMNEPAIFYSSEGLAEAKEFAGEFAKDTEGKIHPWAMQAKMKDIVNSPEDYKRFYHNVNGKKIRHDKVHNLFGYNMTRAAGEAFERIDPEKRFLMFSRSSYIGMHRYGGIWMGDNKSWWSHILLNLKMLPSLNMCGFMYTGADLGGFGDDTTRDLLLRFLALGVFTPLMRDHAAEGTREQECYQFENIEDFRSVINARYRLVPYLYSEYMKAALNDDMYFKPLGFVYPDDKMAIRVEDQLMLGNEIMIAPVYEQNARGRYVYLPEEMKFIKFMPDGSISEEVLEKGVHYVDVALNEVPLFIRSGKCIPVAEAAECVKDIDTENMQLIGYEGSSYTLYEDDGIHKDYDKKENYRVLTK
Protocol: The kinetic studies for PTP1B and α-glucosidase were carried out under the same conditions described in the references.

[9] = tested on: streptozotocin-induced diabetic rats; assay: Weekly fasting glucose in streptozotocin-induced diabetic rats; type: in vivo, Wistar rat; conditions: after 7 and 14 days of treatment (weeks 6 and 7)
Protocol: as §1, §2

[10] = Week 5 (day 1 of treatment), oral, glibenclamide 0.6, FC-114 51.3, FC-122 49.1, PIO 30, acarbose 54.3 mg/kg/day
[11] = Week 6 (day 7 of treatment), same doses
[12] = Week 7 (day 14 of treatment), same doses

SMILES	AUC of the OGTT [5, 10]	AUC of the OGTT [5, 11]	AUC of the OGTT [5, 12]	glucose blood levels in OGTT compared to untreated animals [5]	effective doses to cause decreases in blood glucose [7] [mg/kg]	fasting glucose levels [9]	other results
CC1(C)[C@@H](O)CC[C@]2(C)[C@H]3C(=O)C=C4[C@@H]5C[C@@](C)(C(=O)O)CC[C@]5(C)CC[C@@]4(C)[C@]3(C)CC[C@@H]12 [GA, glycyrrhetinic acid]							CC50 at 48 h [1]: 62 ± 2 µM; LD50 [2]: 610 mg/kg; insulin levels ([3]; 100 mg/kg): increase in insulin levels; plasma TAG, total cholesterol, HDL, VLDL, LDL ([3]; 100 mg/kg): restored normal levels; blood glucose and insulin levels ([3]; oral 100 mg/kg, compared with glibenclamide 600 μg/kg): improved blood glucose and insulin levels
CC1(C)[C@@H](O[C@H]2O[C@H](C(=O)O)[C@@H](O)[C@H](O)[C@H]2O[C@@H]2O[C@H](C(=O)O)[C@@H](O)[C@H](O)[C@H]2O)CC[C@]2(C)[C@H]3C(=O)C=C4[C@@H]5C[C@@](C)(C(=O)O)CC[C@]5(C)CC[C@@]4(C)[C@]3(C)CC[C@@H]12 [GL, glycyrrhizic acid]							dose considered safe [4]: less than 100 mg/day
CCc1ccc(CCOc2ccc(CC3SC(=O)NC3=O)cc2)nc1 (stereo not shown) [PIO, pioglitazone]	49,677	43,584	40,044	significantly improved	15 to 45		effectiveness in lowering blood glucose during the glucose tolerance curve (AUC) ([5]; week 7): most effective; animal weight compared to the untreated group (T2D) [6]: difference in weight
C[C@H]1O[C@H](O[C@H]2[C@H](O)[C@@H](O)[C@@H](O[C@H]3[C@H](O)[C@@H](O)C(O)O[C@@H]3CO)O[C@@H]2CO)[C@H](O)[C@@H](O)[C@@H]1N[C@H]1C=C(CO)[C@@H](O)[C@H](O)[C@H]1O (stereo partly shown) [acarbose]	81,327	81,507	71,240		75 to 300	downward trend	Inhibition type (α-glucosidase) ([8]; Lineweaver-Burk plots): competitive; Ki ([8]; substrate pNPG, Lineweaver-Burk): 26.8 µM
COc1ccc(Cl)cc1C(=O)NCCc1ccc(S(=O)(=O)NC(=O)NC2CCCCC2)cc1 [glibenclamide]	62,022	67,311	50,874	ranked second		downward trend	
